According to PubChem BioAssay (NCI):
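In this assay, cells in 96-well plates receive the compound at five concentrations for 48 hours. Endpoints are linearly interpolated between the surrounding concentrations. GI50 is the concentration that inhibits growth by half. The concentration for full growth arrest is given as TGI.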

Experiments:
Assay in all cases: inhibition of tumour cell growth, NCI panel, 48 h; in the data active means GI50 below about 0.43 µM; inactive means the rest
A498 renal = system: A498 renal
HOP-62 NSCLC = system: HOP-62 NSCLC
SN12C renal = system: SN12C renal
MCF7 breast = system: MCF7 breast
SR leukemia = system: SR leukemia
OVCAR-8 ovarian = system: OVCAR-8 ovarian
NCI/ADR-RES ovarian = system: NCI/ADR-RES ovarian
BT-549 breast = system: BT-549 breast
HT29 colon = system: HT29 colon
K-562 leukemia = system: K-562 leukemia
EKVX NSCLC = system: EKVX NSCLC
IGROV1 ovarian = system: IGROV1 ovarian
SK-MEL-2 melanoma = system: SK-MEL-2 melanoma
HL-60(TB) leukemia = system: HL-60(TB) leukemia
HCT-116 colon = system: HCT-116 colon
M14 melanoma = system: M14 melanoma
SF-295 CNS = system: SF-295 CNS
SW-620 colon = system: SW-620 colon
CAKI-1 renal = system: CAKI-1 renal
RPMI-8226 leukemia = system: RPMI-8226 leukemia
COLO 205 colon = system: COLO 205 colon
UO-31 renal = system: UO-31 renal
CCRF-CEM leukemia = system: CCRF-CEM leukemia
NCI-H23 lung = system: NCI-H23 lung
MOLT-4 leukemia = system: MOLT-4 leukemia
U251 CNS = system: U251 CNS
PC-3 prostate = system: PC-3 prostate
UACC-62 melanoma = system: UACC-62 melanoma
RXF 393 renal = system: RXF 393 renal
OVCAR-3 ovarian = system: OVCAR-3 ovarian
SK-MEL-28 melanoma = system: SK-MEL-28 melanoma
NCI-H460 lung = system: NCI-H460 lung
786-0 renal = system: 786-0 renal
HS 578T breast = system: HS 578T breast
SF-268 CNS = system: SF-268 CNS
UACC-257 melanoma = system: UACC-257 melanoma
DU-145 prostate = system: DU-145 prostate
TK-10 renal = system: TK-10 renal
OVCAR-4 ovarian = system: OVCAR-4 ovarian
A549 NSCLC = system: A549 NSCLC
HCT-15 colon = system: HCT-15 colon
SK-OV-3 ovarian = system: SK-OV-3 ovarian
HCC-2998 colon = system: HCC-2998 colon
SF-539 CNS = system: SF-539 CNS
MDA-MB-231 breast = system: MDA-MB-231 breast
NCI-H226 lung = system: NCI-H226 lung
NCI-H522 lung = system: NCI-H522 lung
KM12 colon = system: KM12 colon
SK-MEL-5 melanoma = system: SK-MEL-5 melanoma
SNB-19 CNS = system: SNB-19 CNS
OVCAR-5 ovarian = system: OVCAR-5 ovarian
MDA-MB-435 = system: MDA-MB-435
ACHN renal = system: ACHN renal
SNB-75 CNS = system: SNB-75 CNS
LOX IMVI melanoma = system: LOX IMVI melanoma
MALME-3M melanoma = system: MALME-3M melanoma

Cc1c(C(=O)O)n(-c2ccc(Cl)cc2)c2ncnc(N)c12
96.9 µM: TGI (HCT-15 colon) | TGI (ACHN renal)
52.2 µM: TGI (A498 renal)
58.6 µM: TGI (HOP-62 NSCLC)
75.1 µM: TGI (SK-OV-3 ovarian)
59.9 µM: TGI (OVCAR-8 ovarian)
38.9 µM: TGI (SF-268 CNS)
56.1 µM: TGI (EKVX NSCLC)
70.1 µM: TGI (TK-10 renal) | TGI (MDA-MB-231 breast)
90.5 µM: TGI (CCRF-CEM leukemia)
47.7 µM: TGI (HCT-116 colon)
50.5 µM: TGI (NCI-H522 lung)
97.6 µM: TGI (SNB-19 CNS)
67.8 µM: TGI (CAKI-1 renal)
> 100 µM: TGI (MCF7 breast) | TGI (SR leukemia) | TGI (NCI/ADR-RES ovarian) | TGI (K-562 leukemia) | TGI (IGROV1 ovarian) | TGI (SK-MEL-2 melanoma) | TGI (HL-60(TB) leukemia) | TGI (SF-295 CNS) | TGI (SW-620 colon) | TGI (UO-31 renal) | TGI (MOLT-4 leukemia) | TGI (U251 CNS) | TGI (OVCAR-3 ovarian) | TGI (SK-MEL-28 melanoma) | TGI (UACC-257 melanoma) | TGI (OVCAR-4 ovarian) | TGI (KM12 colon) | TGI (OVCAR-5 ovarian) | TGI (MDA-MB-435) | TGI (SNB-75 CNS) | TGI (LOX IMVI melanoma)
35.8 µM: TGI (RPMI-8226 leukemia)
43.3 µM: TGI (COLO 205 colon)
54.6 µM: TGI (PC-3 prostate)
57.1 µM: TGI (SN12C renal) | TGI (HCC-2998 colon)
48.6 µM: TGI (SF-539 CNS)
inactive: GI50 (A498 renal) 19.4 µM | GI50 (HOP-62 NSCLC) 20 µM | GI50 (SN12C renal) 19.5 µM | GI50 (MCF7 breast) > 100 µM | GI50 (SR leukemia) 16.6 µM | GI50 (OVCAR-8 ovarian) 14 µM | GI50 (NCI/ADR-RES ovarian) 25.1 µM | GI50 (BT-549 breast) 21.7 µM | GI50 (HT29 colon) 22.6 µM | GI50 (K-562 leukemia) 21.4 µM | GI50 (EKVX NSCLC) 17.2 µM | GI50 (IGROV1 ovarian) 14.6 µM | GI50 (SK-MEL-2 melanoma) 46.9 µM | GI50 (HL-60(TB) leukemia) 37.3 µM | GI50 (HCT-116 colon) 20.5 µM | GI50 (M14 melanoma) 22.6 µM | GI50 (SF-295 CNS) 28.7 µM | GI50 (SW-620 colon) 32.3 µM | GI50 (CAKI-1 renal) 19.2 µM | GI50 (RPMI-8226 leukemia) 12.4 µM | GI50 (COLO 205 colon) 21.7 µM | GI50 (UO-31 renal) 10.3 µM | GI50 (CCRF-CEM leukemia) 27.8 µM | GI50 (NCI-H23 lung) 16.7 µM | GI50 (MOLT-4 leukemia) 31.2 µM | GI50 (U251 CNS) 31.8 µM | GI50 (PC-3 prostate) 19.4 µM | GI50 (UACC-62 melanoma) 17 µM | GI50 (RXF 393 renal) 13.6 µM | GI50 (OVCAR-3 ovarian) 17.5 µM | GI50 (SK-MEL-28 melanoma) 64.8 µM | GI50 (NCI-H460 lung) 14.5 µM | GI50 (786-0 renal) 21.1 µM | GI50 (HS 578T breast) 23.1 µM | GI50 (SF-268 CNS) 12.2 µM | GI50 (UACC-257 melanoma) 36.2 µM | GI50 (DU-145 prostate) 24.1 µM | GI50 (TK-10 renal) 21.8 µM | GI50 (OVCAR-4 ovarian) 48.4 µM | GI50 (A549 NSCLC) 17.4 µM | GI50 (HCT-15 colon) 24.1 µM | GI50 (SK-OV-3 ovarian) 43.9 µM | GI50 (HCC-2998 colon) 23.6 µM | GI50 (SF-539 CNS) 22.7 µM | GI50 (MDA-MB-231 breast) 18 µM | GI50 (NCI-H226 lung) 14.9 µM | GI50 (NCI-H522 lung) 16 µM | GI50 (KM12 colon) 29.9 µM | GI50 (SK-MEL-5 melanoma) 16.2 µM | GI50 (SNB-19 CNS) 36.4 µM | GI50 (OVCAR-5 ovarian) 46.4 µM | GI50 (MDA-MB-435) 33.2 µM | GI50 (ACHN renal) 22.6 µM | GI50 (SNB-75 CNS) 62 µM | GI50 (LOX IMVI melanoma) 30.1 µM | GI50 (MALME-3M melanoma) 31.5 µM
58.7 µM: TGI (BT-549 breast)
29.9 µM: TGI (SK-MEL-5 melanoma)
51 µM: TGI (HT29 colon)
41.9 µM: TGI (UACC-62 melanoma)
37.2 µM: TGI (NCI-H23 lung)
37.8 µM: TGI (NCI-H460 lung)
50.2 µM: TGI (NCI-H226 lung)
39.5 µM: TGI (RXF 393 renal)
75.4 µM: TGI (DU-145 prostate)
65.3 µM: TGI (A549 NSCLC)
53.6 µM: TGI (M14 melanoma)
69.6 µM: TGI (HS 578T breast)
56.2 µM: TGI (786-0 renal)
75.7 µM: TGI (MALME-3M melanoma)
